The targets below were run with O=[As]([O-])(O)O.[K+] [potassium arsenate] (assay: thermal stability z-score vs DMSO; higher = more thermally stabilized by treatment). Conditions: HeLa; arsenate concentration 1 mM.
Experimental: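 Cellular thermal proteome profiling in HeLa cells treated with 1 mM arsenate for 1 h (DMSO pretreatment), heated to ten temperatures (37-66.3 °C). Soluble protein was quantified by TMT mass spectrometry relative to DMSO controls; the thermal stability score was transformed to a z-score; mean of n = 3 experiments.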
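Note: each temperature applied for 3 min, abundance score taken as mean log2 fold change at the two lowest temperatures, z-score obtained by mean subtraction and division by SD.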

Sequence of UniProt Q9HCE5 (Q9HCE5 whole entry): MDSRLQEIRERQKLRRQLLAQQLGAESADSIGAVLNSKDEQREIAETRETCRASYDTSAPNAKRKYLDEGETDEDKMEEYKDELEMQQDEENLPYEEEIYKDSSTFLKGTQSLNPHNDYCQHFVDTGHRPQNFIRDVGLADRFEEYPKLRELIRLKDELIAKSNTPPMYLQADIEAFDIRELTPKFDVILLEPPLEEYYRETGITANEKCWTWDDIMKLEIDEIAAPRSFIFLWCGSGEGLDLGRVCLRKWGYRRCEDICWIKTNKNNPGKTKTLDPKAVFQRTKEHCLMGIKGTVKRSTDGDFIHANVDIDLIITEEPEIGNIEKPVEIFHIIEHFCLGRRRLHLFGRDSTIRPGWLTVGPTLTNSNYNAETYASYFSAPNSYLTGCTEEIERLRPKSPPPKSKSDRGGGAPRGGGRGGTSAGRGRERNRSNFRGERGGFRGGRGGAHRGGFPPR
Sequence of UniProt O95104 (O95104 whole entry): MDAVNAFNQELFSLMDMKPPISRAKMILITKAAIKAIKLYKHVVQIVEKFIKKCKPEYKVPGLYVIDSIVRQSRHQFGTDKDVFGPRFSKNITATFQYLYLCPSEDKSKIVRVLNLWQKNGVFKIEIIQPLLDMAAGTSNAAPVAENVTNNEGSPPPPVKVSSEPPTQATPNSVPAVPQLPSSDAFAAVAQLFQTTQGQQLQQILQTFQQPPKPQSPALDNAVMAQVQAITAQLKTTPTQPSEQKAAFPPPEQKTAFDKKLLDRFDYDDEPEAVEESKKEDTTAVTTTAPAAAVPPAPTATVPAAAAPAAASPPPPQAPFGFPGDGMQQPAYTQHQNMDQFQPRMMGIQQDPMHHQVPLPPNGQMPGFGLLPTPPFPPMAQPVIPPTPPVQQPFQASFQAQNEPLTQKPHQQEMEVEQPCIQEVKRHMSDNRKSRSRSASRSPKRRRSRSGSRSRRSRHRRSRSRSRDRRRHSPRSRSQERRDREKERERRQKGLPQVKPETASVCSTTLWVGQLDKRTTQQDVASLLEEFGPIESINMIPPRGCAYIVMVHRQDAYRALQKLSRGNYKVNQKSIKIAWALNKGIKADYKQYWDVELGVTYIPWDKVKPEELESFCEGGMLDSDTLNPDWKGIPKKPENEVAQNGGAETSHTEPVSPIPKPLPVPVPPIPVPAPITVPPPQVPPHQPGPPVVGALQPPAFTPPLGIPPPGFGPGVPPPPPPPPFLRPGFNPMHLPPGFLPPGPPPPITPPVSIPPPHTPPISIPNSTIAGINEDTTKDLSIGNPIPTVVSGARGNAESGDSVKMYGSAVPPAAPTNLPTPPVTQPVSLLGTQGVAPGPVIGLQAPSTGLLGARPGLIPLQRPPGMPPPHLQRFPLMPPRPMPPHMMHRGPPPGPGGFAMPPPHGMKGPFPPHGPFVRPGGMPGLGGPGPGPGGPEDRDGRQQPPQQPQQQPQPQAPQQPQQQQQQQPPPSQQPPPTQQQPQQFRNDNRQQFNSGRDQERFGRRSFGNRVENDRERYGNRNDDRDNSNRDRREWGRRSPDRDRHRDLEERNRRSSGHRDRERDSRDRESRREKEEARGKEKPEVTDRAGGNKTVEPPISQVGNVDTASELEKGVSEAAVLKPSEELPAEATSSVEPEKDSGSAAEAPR
Sequence of UniProt Q01850 (Q01850 whole entry): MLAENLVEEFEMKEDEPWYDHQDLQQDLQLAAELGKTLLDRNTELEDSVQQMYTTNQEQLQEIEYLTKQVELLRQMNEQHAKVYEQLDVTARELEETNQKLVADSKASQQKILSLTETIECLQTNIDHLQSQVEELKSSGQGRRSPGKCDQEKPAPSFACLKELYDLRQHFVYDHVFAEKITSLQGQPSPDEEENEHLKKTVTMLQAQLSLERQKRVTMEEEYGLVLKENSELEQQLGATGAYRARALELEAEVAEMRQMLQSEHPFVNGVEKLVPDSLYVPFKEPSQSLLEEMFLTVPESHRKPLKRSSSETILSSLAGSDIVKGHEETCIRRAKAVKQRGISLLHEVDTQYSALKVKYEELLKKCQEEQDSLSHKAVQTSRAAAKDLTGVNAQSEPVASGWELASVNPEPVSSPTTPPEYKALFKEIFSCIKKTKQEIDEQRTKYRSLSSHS
Sequence of UniProt Q9UBV8 (Q9UBV8 whole entry): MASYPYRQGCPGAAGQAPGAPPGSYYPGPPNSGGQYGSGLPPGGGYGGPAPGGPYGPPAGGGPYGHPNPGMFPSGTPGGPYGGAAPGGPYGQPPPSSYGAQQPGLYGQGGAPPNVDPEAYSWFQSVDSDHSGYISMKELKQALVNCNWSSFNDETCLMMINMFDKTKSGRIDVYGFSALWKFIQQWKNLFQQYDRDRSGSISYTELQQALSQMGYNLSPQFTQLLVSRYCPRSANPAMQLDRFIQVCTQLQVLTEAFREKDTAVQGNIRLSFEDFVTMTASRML
Sequence of UniProt Q15269 (Q15269 whole entry): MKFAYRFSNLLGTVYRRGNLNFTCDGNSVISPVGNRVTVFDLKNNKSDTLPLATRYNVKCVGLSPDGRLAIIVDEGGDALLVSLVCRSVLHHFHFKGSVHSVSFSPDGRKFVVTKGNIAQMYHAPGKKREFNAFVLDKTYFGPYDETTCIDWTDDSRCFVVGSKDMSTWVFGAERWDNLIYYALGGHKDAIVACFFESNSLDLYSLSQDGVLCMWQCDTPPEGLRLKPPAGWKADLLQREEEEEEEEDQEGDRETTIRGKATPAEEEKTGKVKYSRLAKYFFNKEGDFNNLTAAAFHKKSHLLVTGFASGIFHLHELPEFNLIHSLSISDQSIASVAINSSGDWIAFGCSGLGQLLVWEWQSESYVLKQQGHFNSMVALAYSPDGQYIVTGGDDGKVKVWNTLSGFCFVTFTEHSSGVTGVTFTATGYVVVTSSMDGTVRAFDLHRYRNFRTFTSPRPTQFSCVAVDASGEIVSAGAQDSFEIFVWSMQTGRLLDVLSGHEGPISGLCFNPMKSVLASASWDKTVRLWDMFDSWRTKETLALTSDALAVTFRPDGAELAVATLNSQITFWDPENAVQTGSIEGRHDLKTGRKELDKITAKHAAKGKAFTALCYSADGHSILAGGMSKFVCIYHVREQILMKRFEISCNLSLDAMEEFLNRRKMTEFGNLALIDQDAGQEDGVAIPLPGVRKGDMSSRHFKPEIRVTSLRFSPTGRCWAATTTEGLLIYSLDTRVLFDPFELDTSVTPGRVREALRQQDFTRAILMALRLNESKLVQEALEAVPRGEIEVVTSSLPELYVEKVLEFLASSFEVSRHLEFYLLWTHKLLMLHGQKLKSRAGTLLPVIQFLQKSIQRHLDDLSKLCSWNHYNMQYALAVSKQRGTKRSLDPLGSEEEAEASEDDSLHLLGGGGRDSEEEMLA
Sequence of UniProt P21283 (P21283 whole entry): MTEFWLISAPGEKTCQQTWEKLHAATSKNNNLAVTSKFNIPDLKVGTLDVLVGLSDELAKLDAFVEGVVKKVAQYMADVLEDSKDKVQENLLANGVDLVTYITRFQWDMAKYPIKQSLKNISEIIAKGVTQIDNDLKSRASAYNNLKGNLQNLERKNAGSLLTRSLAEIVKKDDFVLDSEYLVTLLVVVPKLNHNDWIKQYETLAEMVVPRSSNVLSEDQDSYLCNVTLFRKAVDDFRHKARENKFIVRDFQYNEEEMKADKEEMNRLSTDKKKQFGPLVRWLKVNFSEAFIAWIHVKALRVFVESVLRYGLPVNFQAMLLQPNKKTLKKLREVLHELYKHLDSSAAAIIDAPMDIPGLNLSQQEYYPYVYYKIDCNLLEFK
Sequence of UniProt O75306 (O75306 whole entry): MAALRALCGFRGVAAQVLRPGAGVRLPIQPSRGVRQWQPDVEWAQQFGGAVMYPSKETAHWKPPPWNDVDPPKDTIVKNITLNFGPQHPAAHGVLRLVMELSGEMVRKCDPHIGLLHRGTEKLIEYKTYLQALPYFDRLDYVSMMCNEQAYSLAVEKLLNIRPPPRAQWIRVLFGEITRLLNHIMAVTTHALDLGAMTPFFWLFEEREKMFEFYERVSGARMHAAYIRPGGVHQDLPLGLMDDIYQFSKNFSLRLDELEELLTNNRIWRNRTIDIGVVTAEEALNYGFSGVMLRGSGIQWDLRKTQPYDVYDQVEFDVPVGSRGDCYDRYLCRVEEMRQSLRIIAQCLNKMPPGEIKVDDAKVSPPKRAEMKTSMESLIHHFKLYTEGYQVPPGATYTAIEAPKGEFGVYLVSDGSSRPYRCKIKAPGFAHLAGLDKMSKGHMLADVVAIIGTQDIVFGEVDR
Sequence of UniProt Q96CQ1 (Q96CQ1 whole entry): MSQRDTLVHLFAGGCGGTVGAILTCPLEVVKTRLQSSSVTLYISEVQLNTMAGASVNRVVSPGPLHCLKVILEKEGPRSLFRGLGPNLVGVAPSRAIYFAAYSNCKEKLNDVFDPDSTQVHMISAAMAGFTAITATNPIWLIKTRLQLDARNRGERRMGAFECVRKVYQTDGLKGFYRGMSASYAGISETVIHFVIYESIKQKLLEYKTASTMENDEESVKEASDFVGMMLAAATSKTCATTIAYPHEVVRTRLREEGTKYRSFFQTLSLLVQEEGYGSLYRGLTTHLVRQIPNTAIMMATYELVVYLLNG
Sequence of UniProt Q58FG1 (Q58FG1 whole entry): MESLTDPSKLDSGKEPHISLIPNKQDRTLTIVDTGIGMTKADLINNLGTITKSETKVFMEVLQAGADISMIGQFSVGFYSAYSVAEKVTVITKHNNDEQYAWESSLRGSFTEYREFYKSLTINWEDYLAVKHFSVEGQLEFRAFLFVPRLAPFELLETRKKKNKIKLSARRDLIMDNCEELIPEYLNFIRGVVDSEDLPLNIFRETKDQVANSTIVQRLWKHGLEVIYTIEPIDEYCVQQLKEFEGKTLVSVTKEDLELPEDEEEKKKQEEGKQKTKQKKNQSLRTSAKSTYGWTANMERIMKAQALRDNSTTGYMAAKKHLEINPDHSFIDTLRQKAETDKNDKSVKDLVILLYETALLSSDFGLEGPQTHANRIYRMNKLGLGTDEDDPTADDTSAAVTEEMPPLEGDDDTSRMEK
Sequence of UniProt Q9BRT3 (Q9BRT3 whole entry): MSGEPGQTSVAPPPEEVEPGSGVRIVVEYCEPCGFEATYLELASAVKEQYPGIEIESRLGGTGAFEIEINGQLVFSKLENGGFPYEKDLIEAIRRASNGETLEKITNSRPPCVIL

| Target | thermal stability z-score |
| --- | --- |
| DDB2 (UniProt Q92466) | 0.0883 |
| METTL14 (UniProt Q9HCE5) | -0.164 |
| EEF2 (UniProt P13639) | -0.39 |
| CPM (UniProt P14384) | 0.405 |
| RBM4 (UniProt Q9BWF3) | 0.216 |
| SLC25A36 (UniProt Q96CQ1) | -0.241 |
| CARM1 (UniProt Q86X55) | 0.086 |
| RNF5 (UniProt Q99942) | -0.145 |
| EPS8L2 (UniProt Q9H6S3) | 1.1 |
| UBA1 (UniProt P22314) | -0.439 |
| MGEA5 (UniProt O60502) | -0.187 |
| NDUFS2 (UniProt O75306) | -0.577 |
| ZNF638 (UniProt Q14966) | -0.032 |
| LZTR1 (UniProt Q8N653) | -0.137 |
| HYOU1 (UniProt Q9Y4L1) | 0.592 |
| VCPIP1 (UniProt Q96JH7) | -0.233 |
| HSP90AA4P (UniProt Q58FG1) | -2.39 |
| ABCB8 (UniProt Q9NUT2) | -1.1 |
| COG2 (UniProt Q14746) | 0.6 |

| Target | thermal stability z-score |
| --- | --- |
| ATP6V1C1 (UniProt P21283) | 0.132 |
| TMPO | 2.87 |
| NUDCD3 (UniProt Q8IVD9) | 0.339 |
| SLC25A17 (UniProt O43808) | -0.824 |
| PEF1 (UniProt Q9UBV8) | 0.494 |
| PWP2 (UniProt Q15269) | 0.864 |
| CDR2 (UniProt Q01850) | 0.139 |
| NOA1 (UniProt Q8NC60) | -0.0924 |
| SCAF4 (UniProt O95104) | 0.0697 |
| BCKDHB (UniProt P21953) | 1.11 |
| MRPS28 (UniProt Q9Y2Q9) | -0.842 |
| CMBL (UniProt Q96DG6) | -0.162 |
| SEC24C (UniProt P53992) | 0.38 |
| PTDSS2 (UniProt Q9BVG9) | -0.0291 |
| MIEN1 (UniProt Q9BRT3) | 0.969 |
| CHD1 (UniProt O14646) | -0.504 |
| HLA | -0.138 |
| ASL (UniProt P04424) | -0.112 |
| ECI1 (UniProt P42126) | 0.59 |

| Target | thermal stability z-score |
| --- | --- |
| MRPL51 (UniProt Q4U2R6) | -0.0101 |
| BAIAP2 (UniProt Q9UQB8) | -0.138 |
| LSM5 (UniProt Q9Y4Y9) | -1.23 |
| XPNPEP1 (UniProt Q9NQW7) | -0.738 |
| PDZD8 (UniProt Q8NEN9) | 0.123 |
| ZNHIT6 (UniProt Q9NWK9) | 0.0739 |
| HSPA12A (UniProt O43301) | -0.84 |
| PUS7L (UniProt Q9H0K6) | -0.0157 |
| RPL7A (UniProt P62424) | -0.955 |
| PDF (UniProt Q9HBH1) | -0.495 |
| PPP2R2D (UniProt Q66LE6) | 0.0879 |
| QARS | -0.289 |
| RABGAP1L | 0.339 |
| COA7 (UniProt Q96BR5) | -0.364 |
| NAP1L4 (UniProt Q99733) | -0.384 |
| HMGB2 (UniProt P26583) | 0.175 |
| RPTOR (UniProt Q8N122) | 0.227 |
| BCAP31 (UniProt P51572) | -0.144 |

What follows are targets tested with NC(=O)CCCCC1CCSS1 [lipoamide] in the same assay as above. Conditions: HeLa; lipoamide concentration 100 µM; arsenate co-treatment: 1 mM arsenate 1 h.
Experimental: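 Cellular thermal proteome profiling in HeLa cells. Cells were treated with 100 µM lipoamide for 1 h, with or without 1 mM arsenate for a further 1 h, then heated to ten temperatures (37-66.3 °C), and soluble protein was quantified by TMT mass spectrometry relative to 0.1% DMSO controls. The thermal stability score (sum of log2 fold changes minus the abundance score) was transformed to a z-score; mean of n = 3 experiments.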

| Target | thermal stability z-score |
| --- | --- |
| DDB2 (UniProt Q92466) | -0.684 |
| METTL14 (UniProt Q9HCE5) | 0.355 |
| EEF2 (UniProt P13639) | -0.0517 |
| CPM (UniProt P14384) | 0.0529 |
| RBM4 (UniProt Q9BWF3) | 0.135 |
| SLC25A36 (UniProt Q96CQ1) | 0.659 |
| CARM1 (UniProt Q86X55) | 0.99 |
| RNF5 (UniProt Q99942) | -0.0839 |
| EPS8L2 (UniProt Q9H6S3) | 0.124 |
| UBA1 (UniProt P22314) | -0.526 |
| MGEA5 (UniProt O60502) | -0.365 |
| NDUFS2 (UniProt O75306) | -0.481 |
| ZNF638 (UniProt Q14966) | 0.83 |
| LZTR1 (UniProt Q8N653) | -0.12 |
| HYOU1 (UniProt Q9Y4L1) | -4.47 |
| VCPIP1 (UniProt Q96JH7) | -0.216 |
| HSP90AA4P (UniProt Q58FG1) | -1.84 |
| ABCB8 (UniProt Q9NUT2) | -0.84 |
| COG2 (UniProt Q14746) | 0.0711 |
| ATP6V1C1 (UniProt P21283) | -0.136 |
| TMPO | 0.194 |
| NUDCD3 (UniProt Q8IVD9) | -0.592 |
| SLC25A17 (UniProt O43808) | -0.416 |
| PEF1 (UniProt Q9UBV8) | 0.534 |
| PWP2 (UniProt Q15269) | -0.256 |
| CDR2 (UniProt Q01850) | 0.134 |
| NOA1 (UniProt Q8NC60) | 0.222 |
| SCAF4 (UniProt O95104) | 0.0769 |
